# Source: PubChem BioAssay (NCI)
#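 How tested: cells in 96-well plates exposed to compound for 48 hours at five concentrations. TGI: concentration producing complete growth inhibition.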
# Columns and labels:
# Assay in all cases: NCI-60 cell line screen, 48 h
# MOLT-4 leukemia = system: MOLT-4 leukemia
# BT-549 breast = system: BT-549 breast
# HOP-92 NSCLC = system: HOP-92 NSCLC
# K-562 leukemia = system: K-562 leukemia
# UO-31 renal = system: UO-31 renal
# SR leukemia = system: SR leukemia
# MDA-MB-231 breast = system: MDA-MB-231 breast
# SK-OV-3 ovarian = system: SK-OV-3 ovarian
# HL-60(TB) leukemia = system: HL-60(TB) leukemia
# OVCAR-3 ovarian = system: OVCAR-3 ovarian
# SK-MEL-28 melanoma = system: SK-MEL-28 melanoma
# CAKI-1 renal = system: CAKI-1 renal
# OVCAR-5 ovarian = system: OVCAR-5 ovarian
# PC-3 prostate = system: PC-3 prostate
# LOX IMVI melanoma = system: LOX IMVI melanoma
# CCRF-CEM leukemia = system: CCRF-CEM leukemia
# DU-145 prostate = system: DU-145 prostate
# HS 578T breast = system: HS 578T breast
# IGROV1 ovarian = system: IGROV1 ovarian
# M14 melanoma = system: M14 melanoma
Compound,TGI (MOLT-4 leukemia),TGI (BT-549 breast),TGI (HOP-92 NSCLC),TGI (K-562 leukemia),TGI (UO-31 renal),TGI (SR leukemia),TGI (MDA-MB-231 breast),TGI (SK-OV-3 ovarian),TGI (HL-60(TB) leukemia),TGI (OVCAR-3 ovarian),TGI (SK-MEL-28 melanoma),TGI (CAKI-1 renal),TGI (OVCAR-5 ovarian),TGI (PC-3 prostate),TGI (LOX IMVI melanoma),TGI (CCRF-CEM leukemia),TGI (DU-145 prostate),TGI (HS 578T breast),TGI (IGROV1 ovarian),TGI (M14 melanoma)
COC1=C(C(c2cc(OC)c(OC)c(OC)c2)c2cc3c(cc2OC)OCO3)C(=O)OC1 (centres undefined),> 100 µM,> 100 µM,> 100 µM,> 100 µM,54.9 µM,> 61.7 µM,> 93.5 µM,> 78.6 µM,49.9 µM,> 61 µM,87.9 µM,> 100 µM,> 100 µM,> 70.4 µM,> 100 µM,> 68.8 µM,70.5 µM,> 58.4 µM,> 84.8 µM,63.6 µM
O=c1[nH]c(=S)[nH]cc1CN1CCOCC1,> 100 µM,> 100 µM,> 100 µM,> 100 µM,> 100 µM,> 100 µM,> 100 µM,> 100 µM,> 100 µM,> 100 µM,> 100 µM,> 100 µM,> 100 µM,> 100 µM,> 100 µM,> 100 µM,> 100 µM,> 100 µM,> 100 µM,> 100 µM
CC[C@@H]1/C=C/C=C/C[C@H](C)[C@@H](O)[C@@H](C)C(=O)[C@H](C)[C@@H](O)[C@H](C)C(=O)[C@H](C)[C@@H](O)[C@H](C)/C=C/C(=O)O[C@H]2[C@@H](C)[C@@H](CC1)O[C@@]1(CC[C@@H](C)[C@@H](CC(C)O)O1)[C@@H]2C (some centres undefined),7.65 µM,24.4 µM,> 20 µM,> 25 µM,,10.2 µM,> 17.4 µM,> 21.3 µM,7.27 µM,17.7 µM,> 25 µM,> 25 µM,15.4 µM,12.3 µM,> 25 µM,> 14.4 µM,> 11.8 µM,> 23.5 µM,24.9 µM,> 14.7 µM
C#CCOC(=O)C(N)CC(N)=O (centres undefined),> 100 µM,> 100 µM,> 100 µM,> 100 µM,> 100 µM,> 100 µM,> 100 µM,> 100 µM,> 100 µM,> 100 µM,> 100 µM,> 100 µM,> 100 µM,> 100 µM,> 100 µM,> 100 µM,> 100 µM,> 100 µM,> 100 µM,> 100 µM
CC(C)=CCC[C@@H](C)[C@H]1CC[C@@]2(C)[C@@H]3CC[C@H]4C(C)(C)[C@@H](O)CC[C@@]45C[C@@]35CC[C@]12C,> 87.2 µM,55.6 µM,44.2 µM,> 100 µM,> 66.2 µM,> 67.1 µM,> 64.6 µM,> 100 µM,> 95.4 µM,> 100 µM,> 100 µM,> 100 µM,> 100 µM,> 100 µM,56.5 µM,63.5 µM,> 100 µM,> 100 µM,40.5 µM,> 85.1 µM
NS(=O)(=O)c1ccc(NC(=S)NC(=O)Nc2ccc(Cl)c(Cl)c2)cc1,49.6 µM,31.7 µM,48.6 µM,> 82.6 µM,9.66 µM,> 100 µM,33.5 µM,38.9 µM,33.5 µM,42 µM,43.5 µM,40.1 µM,27.9 µM,30 µM,19.1 µM,70.7 µM,33.7 µM,59.3 µM,39.2 µM,20.9 µM
CC(C#N)(c1ccccc1)N(CCc1ccccc1)C(=O)Oc1ccccc1 (centres undefined),> 100 µM,> 100 µM,65 µM,> 100 µM,> 100 µM,> 100 µM,> 100 µM,> 100 µM,> 100 µM,> 100 µM,> 100 µM,> 100 µM,> 100 µM,> 100 µM,> 100 µM,> 100 µM,> 100 µM,> 100 µM,> 100 µM,> 100 µM
NC(N)=N/N=C/c1c(-c2ccccc2[N+](=O)[O-])nc2sccn12,46 µM,> 100 µM,> 100 µM,33.8 µM,90.3 µM,35.1 µM,33.4 µM,> 100 µM,40.4 µM,> 100 µM,> 100 µM,> 100 µM,> 100 µM,71.1 µM,44.4 µM,55 µM,> 100 µM,> 100 µM,> 100 µM,31.2 µM
C=CCN1C(=O)CC2[C@@H]3CCc4cc(O)ccc4C3CC[C@]2(C)C1=O (some centres undefined),> 10 µM,> 10 µM,> 10 µM,> 10 µM,> 10 µM,> 10 µM,> 10 µM,> 10 µM,> 10 µM,> 10 µM,> 10 µM,> 10 µM,> 10 µM,> 10 µM,> 10 µM,> 10 µM,> 10 µM,> 10 µM,> 10 µM,> 10 µM
O=C(CNc1ccccc1[N+](=O)[O-])Nn1cnc2ccc(S(=O)(=O)Nc3ccccc3[N+](=O)[O-])cc2c1=O,> 100 µM,> 100 µM,> 100 µM,> 100 µM,> 100 µM,> 100 µM,> 100 µM,> 100 µM,> 100 µM,> 100 µM,> 100 µM,> 100 µM,> 100 µM,> 100 µM,> 100 µM,> 100 µM,> 100 µM,> 100 µM,> 100 µM,> 100 µM
Clc1ccc(Cc2nc3ccccc3o2)cc1,> 100 µM,> 100 µM,> 100 µM,> 100 µM,> 100 µM,> 100 µM,> 100 µM,> 100 µM,> 100 µM,> 100 µM,> 100 µM,> 100 µM,> 100 µM,> 100 µM,> 100 µM,> 100 µM,> 100 µM,> 100 µM,> 100 µM,> 100 µM
